Assay results taken from article PMC12606047, “Targeting the Liquid–Liquid Separation Region of c‐Maf for Treating Chromosomal Translocations in Multiple Myeloma” (MedComm, 2025).

Tests used:
[1] = target: T1, c-Maf protein (Homo sapiens, UniProt O75444); experiment: Surface plasmon resonance (SPR) binding to c-Maf protein; conditions: values given in mM; read-out: SPR dissociation constant (Kd)
T1 construct: made in house; host or cells: prokaryotic (pET-28a vector)
T1 sequence (O75444 1-373): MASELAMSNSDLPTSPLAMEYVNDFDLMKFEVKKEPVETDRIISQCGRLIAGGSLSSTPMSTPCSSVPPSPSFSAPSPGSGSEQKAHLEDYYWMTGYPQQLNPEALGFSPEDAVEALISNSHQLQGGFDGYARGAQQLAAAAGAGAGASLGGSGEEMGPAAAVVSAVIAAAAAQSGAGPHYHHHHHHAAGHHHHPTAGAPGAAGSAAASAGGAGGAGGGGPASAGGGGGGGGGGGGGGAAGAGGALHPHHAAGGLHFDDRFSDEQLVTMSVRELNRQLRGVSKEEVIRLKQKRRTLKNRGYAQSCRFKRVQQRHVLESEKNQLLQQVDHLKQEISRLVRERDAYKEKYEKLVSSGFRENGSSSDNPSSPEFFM

[2] = target: T1, c-Maf protein; experiment: Microscale thermophoresis (MST) binding to c-Maf protein; conditions: labelled purified c-Maf protein; read-out: MST dissociation constant (Kd)
Experimental: To determine if the screened compound interacts with the c-Maf protein, we used a MonolithTM RED-NHS second generation protein labelling kit (NanoTemper Germany) to fluorescently label 10 µM of purified c-Maf protein. We then mixed various concentrations of the drug with an equal concentration of c-Maf protein and incubated the mixture for 5 min at room temperature. The mixture was then aspirated with a capillary tube and the binding capacity was measured using a new generation biomolecular interaction assay (NanoTemper Germany). The Kd values were calculated using analytical software.

[3] = test system: ARP1 cells; experiment: MTT proliferation assay, ARP1 cells; assay type: cell-based, human; conditions: ARP1 WT; Table 2 prints no cell line, its BBA value equals the ARP1 IC50 of b29
[4] = test system: MM PDX tumor; experiment: MM patient-derived tumor xenograft (PDX) model; assay type: in vivo, NOD/SCID mice; conditions: IHC and IF, single treatment
Experimental: The biopsy sample was taken from tumor tissue excised from MM patient at Nanjing Hospital of Chinese Medicine affiliated with Nanjing University of Chinese Medicine. The tissue was then cut into 2.5×2.5×2.5 mm^3 pieces and transplanted subcutaneously into 6-week-old NOD/SCID male mice (n = 6 mice in each group) under anesthesia with 1% sodium pentobarbital. […] This process was repeated three times to ensure stable tumor growth. […] Single treatment was administered every three days, while combination treatment was administered every other day.

[5] = test system: 5TMM3VT mouse myeloma cells; experiment: 5TMM3VT mouse model; assay type: in vivo, C57BL/KaLwRij mice; conditions: single treatment; BBA 5 mg/kg, BTZ 1 mg/kg
Experimental: 5TMM3VT mouse myeloma cells (1 × 10^6) were injected through the tail vein into C57BL/KaLwRij mice from Harlan Laboratories (n = 9 per group). The mice were randomly divided into four groups (Ctrl, BBA, BTZ and BBA+BTZ combination groups). On the third day after modeling, oral administration of PBS, BBA (5 mg/kg) and BTZ (1 mg/kg) was performed twice a week, while combination therapy was administered every other day.

| Compound | Kd [1] [mM] | Kd [2] [µM] | MTT IC50 [3] | Expression of c-Maf, Ki67, RNA Pol II, Mtbp, c-Myc and c-Maf/RNA Pol II co-localization in tumors [4] | Survival time of 5TMM3VT mice [5] |
| --- | --- | --- | --- | --- | --- |
| Chlorophenylacetamide | 3.31 | 555 | Unstable |  |  |
| CC(C)C[C@H](NC(=O)[C@H](Cc1ccccc1)NC(=O)c1cnccn1)B(O)O [BTZ, bortezomib] |  |  |  | inhibited | significantly improved |
